Reference: ChEMBL document CHEMBL1201862, “PubChem BioAssay data set” (2004)
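Assay format: 96-well plates, 48-hour exposure. GI50 = concentration required for 50% inhibition of growth.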 The source made the active and inactive calls. Rule as the data show it: active = GI50 up to about 1.1 µM and inactive = higher.

How the values were obtained:
Assay in all cases: NCI tumour cell line growth inhibition, 48 h
A549 = test system: A549
ACHN = test system: ACHN
CCRF-CEM = test system: CCRF-CEM
HOP-92 = test system: HOP-92
LOX IMVI = test system: LOX IMVI
NCI-H460 = test system: NCI-H460
OVCAR-3 = test system: OVCAR-3
OVCAR-8 = test system: OVCAR-8
PC-3 = test system: PC-3
SK-MEL-5 = test system: SK-MEL-5
SK-OV-3 = test system: SK-OV-3
SNB-75 = test system: SNB-75
SR = test system: SR
UACC-62 = test system: UACC-62
Malme-3M = test system: Malme-3M
UACC-257 = test system: UACC-257
DU-145 = test system: DU-145
MDA-MB-231 = test system: MDA-MB-231
MDA-MB-435 = test system: MDA-MB-435

Measured: GI50

CC1C2=C(O)CC(C)(C)CC2=NC2=C1C(=O)CC(C)(C)C2 (stereo not drawn)
inactive: A549 > 100 µM | ACHN > 100 µM | CCRF-CEM > 100 µM | HOP-92 > 100 µM | LOX IMVI > 100 µM | NCI-H460 > 100 µM | OVCAR-3 > 100 µM | OVCAR-8 > 100 µM | PC-3 > 100 µM | SK-MEL-5 > 100 µM | SK-OV-3 > 100 µM | SNB-75 83 µM | SR > 100 µM | UACC-62 > 100 µM

CC(=O)N(O)Cc1ccccc1
inactive: A549 > 100 µM | ACHN > 100 µM | CCRF-CEM > 100 µM | HOP-92 > 100 µM | LOX IMVI > 100 µM | Malme-3M > 100 µM | NCI-H460 > 100 µM | OVCAR-3 > 100 µM | OVCAR-8 > 100 µM | SK-MEL-5 > 100 µM | SK-OV-3 > 100 µM | SNB-75 67.9 µM | SR > 100 µM | UACC-257 > 100 µM | UACC-62 > 100 µM

CCOC(=O)C(C)(C)Oc1ccc2c(=O)cc(-c3ccc(Cl)cc3)oc2c1
inactive: A549 > 100 µM | ACHN > 100 µM | CCRF-CEM > 100 µM | LOX IMVI > 100 µM | Malme-3M > 100 µM | NCI-H460 > 100 µM | OVCAR-3 > 100 µM | OVCAR-8 > 100 µM | SK-MEL-5 > 100 µM | SNB-75 38.4 µM | SR > 100 µM | UACC-257 > 100 µM | UACC-62 > 100 µM

CN(C)C1(N(C)C)Oc2c(c(=O)n(C)c(=O)n2C)C(c2ccc(C(F)(F)F)cc2)C1(F)F (stereo not drawn)
inactive: A549 > 100 µM | ACHN > 100 µM | CCRF-CEM > 100 µM | DU-145 > 100 µM | HOP-92 > 100 µM | LOX IMVI > 100 µM | MDA-MB-231 > 100 µM | MDA-MB-435 > 100 µM | NCI-H460 > 100 µM | OVCAR-3 > 100 µM | PC-3 > 100 µM | SK-MEL-5 > 100 µM | SK-OV-3 > 100 µM | SNB-75 > 100 µM | UACC-257 > 100 µM | UACC-62 > 100 µM

COC(=O)C(Cc1nc2ccccc2nc1O)C(=O)C(=O)Nc1ccc([N+](=O)[O-])cc1[N+](=O)[O-] (stereo not drawn)
inactive: A549 34.1 µM | ACHN 18.2 µM | CCRF-CEM 13.2 µM | LOX IMVI 20.9 µM | Malme-3M 19.3 µM | NCI-H460 22.1 µM | OVCAR-3 15.5 µM | OVCAR-8 22.3 µM | SK-MEL-5 18.3 µM | SK-OV-3 24.9 µM | SNB-75 16.3 µM | SR 12 µM | UACC-257 19.7 µM | UACC-62 18.7 µM

CC1(C)S[C@@H]2[C@H](N3C(=O)c4ccccc4C3=O)CN2[C@H]1NC(=O)N[C@@H]1N2C[C@@H](N3C(=O)c4ccccc4C3=O)[C@H]2SC1(C)C
inactive: A549 73.3 µM | ACHN > 100 µM | CCRF-CEM > 100 µM | DU-145 > 100 µM | HOP-92 42.2 µM | LOX IMVI > 100 µM | MDA-MB-231 52.7 µM | MDA-MB-435 > 100 µM | Malme-3M > 100 µM | NCI-H460 > 100 µM | OVCAR-3 > 100 µM | OVCAR-8 58.3 µM | PC-3 > 100 µM | SK-MEL-5 > 100 µM | SK-OV-3 80.9 µM | SNB-75 58.2 µM | UACC-62 > 100 µM

c1ccc(C2=NOC3COc4ccccc4OCC23)cc1 (stereo not drawn)
inactive: A549 > 100 µM | ACHN > 100 µM | CCRF-CEM > 100 µM | LOX IMVI > 100 µM | Malme-3M > 100 µM | NCI-H460 > 100 µM | OVCAR-3 > 100 µM | OVCAR-8 > 100 µM | SK-MEL-5 61.5 µM | SK-OV-3 > 100 µM | SNB-75 54.6 µM | SR > 100 µM | UACC-257 > 100 µM | UACC-62 > 100 µM

CCc1oc2ccc(OC)c3c2c1C=CC=C3
inactive: A549 > 100 µM | ACHN > 100 µM | CCRF-CEM > 100 µM | LOX IMVI > 100 µM | Malme-3M > 100 µM | NCI-H460 > 100 µM | OVCAR-3 > 100 µM | OVCAR-8 > 100 µM | SK-MEL-5 > 100 µM | SK-OV-3 > 100 µM | SNB-75 60.3 µM | SR > 100 µM | UACC-257 > 100 µM | UACC-62 > 100 µM

CCCCC(C(=O)C(=O)NC1C2CC3CC(C2)CC1C3)C(=O)C(C)C (stereo not drawn)
inactive: A549 > 100 µM | ACHN > 100 µM | CCRF-CEM > 100 µM | HOP-92 > 100 µM | LOX IMVI > 100 µM | Malme-3M > 100 µM | NCI-H460 > 100 µM | OVCAR-3 > 100 µM | OVCAR-8 > 100 µM | SK-MEL-5 > 100 µM | SK-OV-3 > 100 µM | SNB-75 > 100 µM | SR > 100 µM | UACC-257 > 100 µM | UACC-62 > 100 µM

Cn1c(-c2ccccc2)c/c(=N\NS(C)(=O)=O)c2cc(S(=O)(=O)O)ccc21
inactive: A549 > 100 µM | ACHN > 100 µM | CCRF-CEM > 100 µM | HOP-92 > 100 µM | LOX IMVI > 100 µM | Malme-3M > 100 µM | NCI-H460 > 100 µM | OVCAR-3 > 100 µM | OVCAR-8 > 100 µM | SK-MEL-5 > 100 µM | SK-OV-3 > 100 µM | SNB-75 > 100 µM | SR > 100 µM | UACC-257 > 100 µM | UACC-62 > 100 µM

CCOC(=O)N1C/C(=C\c2ccc(N(C)C)cc2)C(=O)/C(=C/c2ccc(N(C)C)cc2)C1
inactive: A549 > 100 µM | ACHN > 100 µM | CCRF-CEM > 100 µM | HOP-92 > 100 µM | LOX IMVI > 100 µM | Malme-3M > 100 µM | NCI-H460 > 100 µM | OVCAR-3 > 100 µM | OVCAR-8 > 100 µM | SK-MEL-5 > 100 µM | SK-OV-3 > 100 µM | SNB-75 > 100 µM | SR > 100 µM | UACC-257 > 100 µM | UACC-62 > 100 µM

O=C(CO)CC(=O)C(=O)Nc1nc([N+](=O)[O-])cs1
inactive: A549 > 100 µM | ACHN > 100 µM | CCRF-CEM > 100 µM | HOP-92 > 10 µM | LOX IMVI > 100 µM | Malme-3M > 100 µM | NCI-H460 > 100 µM | OVCAR-3 > 100 µM | OVCAR-8 > 100 µM | SK-MEL-5 > 100 µM | SK-OV-3 > 100 µM | SNB-75 55.1 µM | SR > 100 µM | UACC-257 > 100 µM | UACC-62 > 100 µM

Cc1nc2c(n1Cc1ccc(F)cc1)C(=O)c1ccccc1C2=O
inactive: A549 36.5 µM | ACHN 28.9 µM | CCRF-CEM 10.5 µM | LOX IMVI 7.18 µM | Malme-3M 8.89 µM | NCI-H460 4.07 µM | OVCAR-3 15.1 µM | OVCAR-8 35.4 µM | SK-MEL-5 10.3 µM | SK-OV-3 > 100 µM | SNB-75 36.6 µM | SR 4.29 µM | UACC-257 26.6 µM | UACC-62 5.25 µM

CC1=C(c2cc(C(=O)Nc3cccc(C(F)(F)F)c3)ncn2)Sc2ccccc2N1
inactive: A549 > 100 µM | ACHN > 100 µM | CCRF-CEM > 100 µM | HOP-92 > 100 µM | Malme-3M > 100 µM | NCI-H460 > 100 µM | OVCAR-3 > 100 µM | OVCAR-8 > 100 µM | SK-MEL-5 > 100 µM | SK-OV-3 > 100 µM | SNB-75 58.9 µM | SR > 100 µM | UACC-257 > 100 µM | UACC-62 > 100 µM

O=S(=O)(c1ccccc1)C(CN1CCCCC1)S(=O)(=O)c1ccccc1
inactive: A549 > 100 µM | ACHN > 100 µM | CCRF-CEM > 100 µM | HOP-92 > 100 µM | LOX IMVI > 100 µM | Malme-3M > 100 µM | NCI-H460 > 100 µM | OVCAR-3 > 100 µM | OVCAR-8 > 100 µM | SK-OV-3 > 100 µM | SNB-75 > 100 µM | SR > 100 µM | UACC-257 > 100 µM | UACC-62 > 100 µM

CC(=O)[O-].Cc1ncc(CO)c(/C=N/NC(N)=S)c1[O-].[Zn+2]
inactive: A549 > 100 µM | ACHN > 100 µM | CCRF-CEM > 100 µM | LOX IMVI > 100 µM | Malme-3M > 100 µM | NCI-H460 > 100 µM | OVCAR-3 > 100 µM | OVCAR-8 > 100 µM | SK-MEL-5 > 100 µM | SK-OV-3 > 100 µM | SNB-75 > 100 µM | SR > 100 µM | UACC-257 > 100 µM | UACC-62 > 100 µM

CC1CC[C@]2(C(=O)O)CCC3(C)C(=CC(=O)C4[C@@]5(C)CCC(=O)C(C)(C)C5CC[C@]43C)[C@@H]2[C@H]1C (stereo partly drawn)
inactive: A549 24.5 µM | ACHN 21 µM | CCRF-CEM 14.4 µM | HOP-92 25 µM | LOX IMVI 15.9 µM | Malme-3M 28.8 µM | NCI-H460 26.2 µM | OVCAR-3 17.4 µM | OVCAR-8 29.4 µM | SK-MEL-5 20.7 µM | SK-OV-3 34.5 µM | SNB-75 35.5 µM | SR 10.9 µM | UACC-257 23.2 µM | UACC-62 13.2 µM

CCC1(O)C(=O)OCc2c1cc1n(c2=O)Cc2cc3cc(OC)c(OC)cc3nc2-1 (stereo not drawn)
inactive: A549 33.1 µM | ACHN 4.5 µM | CCRF-CEM 2.81 µM | HOP-92 > 100 µM | LOX IMVI 7.19 µM | Malme-3M > 100 µM | NCI-H460 3.49 µM | OVCAR-3 83.4 µM | OVCAR-8 82.4 µM | SK-MEL-5 17.5 µM | SK-OV-3 19.7 µM | SNB-75 15 µM | SR 2.29 µM | UACC-257 > 100 µM | UACC-62 > 10 µM
